According to ChEMBL document CHEMBL5620346, “Current scenario of pyrazole hybrids with in vivo therapeutic potential against cancers” (Eur J Med Chem, 2023):

Assays:
[1] = test system: HepG2; experiment: Cytotoxicity against human HepG2 cells assessed as reduction in cell viability incubated for 72 hrs by MTT assay; assay type: functional, cell-based; details: HepG2, 72 h
[2] = test system: MCF7; experiment: Cytotoxicity against human MCF7 cells assessed as reduction in cell viability incubated for 72 hrs by MTT assay; assay type: functional, cell-based; details: MCF7, 72 h
[3] = test system: HeLa; experiment: Cytotoxicity against human HeLa cells assessed as reduction in cell viability incubated for 72 hrs by MTT assay; assay type: functional, cell-based
[4] = test system: T47D; experiment: Antitumor activity against human T47D cells xenografted in nude BALB/c mouse assessed as tumor growth inhibition at 20 mg/kg administered via oral gavage for 20 days relative to control; assay type: functional; details: 480 h, time 20 day, read-out: TGI
[5] = test system: T47D; experiment: Antitumor activity against human T47D cells xenografted in nude BALB/c mouse assessed as tumor growth inhibition at 40 mg/kg administered via oral gavage for 20 days relative to control; assay type: functional; details: 480 h, time 20 day, read-out: TGI
[6] = test system: T47D; experiment: Antiproliferative activity against human T47D cells assessed as reduction in cell viability incubated for 72 hrs by MTT assay; assay type: functional, cell-based
[7] = test system: BT-549; experiment: Antiproliferative activity against human BT-549 cells assessed as inhibition of cell proliferation incubated for 72 hrs by MTT assay; assay type: functional, cell-based; details: BT-549, 72 h
[8] = test system: MCF7; experiment: Antiproliferative activity against human MCF7 cells assessed as reduction in cell viability incubated for 72 hrs by MTT assay; assay type: functional, cell-based; details: MCF7, 72 h
[9] = test system: MDA-MB-453; experiment: Antiproliferative activity against human MDA-MB-453 cells assessed as reduction in cell viability incubated for 72 hrs by MTT assay; assay type: functional, cell-based; details: MDA-MB-453, 72 h
[10] = test system: MDA-MB-231; experiment: Antiproliferative activity against human MDA-MB-231 cells assessed as reduction in cell viability incubated for 72 hrs by MTT assay; assay type: functional, cell-based; details: MDA-MB-231, 72 h
[11] = test system: BT-549; experiment: Antitumor activity against human BT-549 cells xenografted in BALB/c nude mouse assessed as tumor growth inhibition at 30 mg/kg, sc administered for 20 days relative to control; assay type: functional; details: BT-549, 480 h, time 20 day, read-out: TGI
[12] = […] in mouse xenografted with human NCI-H526 cells assessed as reduction in tumor growth at 3 mg/kg, po relative to control; assay type: organism-based; details: in vivo
[13] = molecular target: Receptor-type tyrosine-protein kinase FLT3 (Homo sapiens, UniProt P36888, D835H); experiment: Inhibition of FLT3 D835H mutant (unknown origin)
[14] = molecular target: Cyclin-dependent kinase 4 (Homo sapiens, UniProt P11802); experiment: Inhibition of CDK4 (unknown origin)
Sequence of Cyclin-dependent kinase 4 (P11802 whole entry): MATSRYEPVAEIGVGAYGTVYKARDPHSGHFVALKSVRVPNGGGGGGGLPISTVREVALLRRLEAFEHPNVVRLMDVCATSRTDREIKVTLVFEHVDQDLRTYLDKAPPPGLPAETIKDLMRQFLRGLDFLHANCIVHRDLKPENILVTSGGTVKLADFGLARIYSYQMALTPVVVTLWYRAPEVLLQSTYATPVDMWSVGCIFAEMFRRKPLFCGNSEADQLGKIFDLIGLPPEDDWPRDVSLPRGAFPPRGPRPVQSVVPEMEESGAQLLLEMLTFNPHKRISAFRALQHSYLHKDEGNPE

[15] = test system: MV4-11; experiment: Antitumor activity against human MV4-11 cells xenografted in mouse assessed as tumor growth inhibition at 200 mg/kg, po relative to control; assay type: functional; details: read-out: TGI
[16] = test system: MCF7; experiment: Cytotoxicity against human MCF7 cells assessed as reduction in cell viability measured after 72 hrs by SRB assay; assay type: functional, cell-based; details: MCF7, 72 h
[17] = test system: MCF-10A; experiment: Cytotoxicity against human MCF-10A cells assessed as reduction in cell viability measured after 72 hrs by SRB assay; assay type: functional, cell-based
[18] = test system: HCT-116; experiment: Antiproliferative activity against human HCT-116 cells assessed as reduction in cell growth incubated for 72 hrs by SRB assay; assay type: functional, cell-based; details: HCT-116, 72 h
[19] = test system: HepG2; experiment: Antiproliferative activity against human HepG2 cells assessed as reduction in cell growth incubated for 72 hrs by SRB assay; assay type: functional, cell-based; details: HepG2, 72 h
[20] = test system: NCI-H1975; experiment: Antiproliferative activity against human NCI-H1975 cells assessed as reduction in cell growth incubated for 72 hrs by SRB assay; assay type: functional, cell-based; details: NCI-H1975, 72 h
[21] = Antiproliferative activity against human 95-D cells assessed as reduction in cell growth incubated for 72 hrs by SRB assay; assay type: functional, cell-based
[22] = test system: PANC-1; experiment: Antiproliferative activity against human PANC-1 cells assessed as reduction in cell growth incubated for 72 hrs by SRB assay; assay type: functional, cell-based; details: PANC-1, 72 h
[23] = test system: MDA-MB-231; experiment: Antiproliferative activity against human MDA-MB-231 cells assessed as reduction in cell growth incubated for 72 hrs by SRB assay; assay type: functional, cell-based; details: MDA-MB-231, 72 h
[24] = test system: Bel-7402; experiment: Antiproliferative activity against human Bel-7402 cells assessed as reduction in cell growth incubated for 72 hrs by SRB assay; assay type: functional, cell-based; details: Bel-7402, 72 h
[25] = test system: NCI-H1299; experiment: Antiproliferative activity against human NCI-H1299 cells assessed as reduction in cell growth incubated for 72 hrs by SRB assay; assay type: functional, cell-based; details: NCI-H1299, 72 h
[26] = test system: SK-OV-3; experiment: Antiproliferative activity against human SK-OV-3 cells assessed as reduction in cell growth incubated for 72 hrs by SRB assay; assay type: functional, cell-based; details: SK-OV-3, 72 h
[27] = test system: K562; experiment: Antiproliferative activity against human K562 cells assessed as reduction in cell growth incubated for 72 hrs by SRB assay; assay type: functional, cell-based; details: K562, 72 h
[28] = test system: U-87 MG; experiment: Antiproliferative activity against human U87 cells assessed as reduction in cell growth incubated for 72 hrs by SRB assay; assay type: functional, cell-based, U-87MG ATCC
[29] = Cytotoxicity against human NCM460 cells assessed as reduction in cell viability incubated for 48 hrs by MTT assay; assay type: toxicity, cell-based
[30] = Antiproliferative activity against HUVEC cells assessed as cell growth inhibition measured after 72 hrs by crystal violet staining based analysis; assay type: toxicity; details: human
[31] = test system: HCT-116; experiment: Antitumor activity against human HCT-116 cells xenografted in BALB/c nude mouse assessed as tumor growth inhibition at 25 mg/kg, po administered once a daily for 13 consecutive days relative to control; assay type: functional; details: read-out: TGI
[32] = test system: HCT-116; experiment: Antitumor activity against human HCT-116 cells xenografted in BALB/c nude mouse assessed as tumor growth inhibition at 50 mg/kg, po administered once a daily for 13 consecutive days relative to control; assay type: functional; details: read-out: TGI

SMILES: CCOC(=O)C1=C(N/C=N/c2cccnc2Cl)Nc2[nH]nc(C)c2C1c1ccc(N(C)C)cc1 (stereo not drawn)
- IC50 [1]: 4.55 µM
- IC50 [2]: 4.24 µM
- IC50 [3]: 4.18 µM

SMILES: CCOC(=O)C1=C(N)Nc2[nH]nc(C)c2C1c1ccc(N(C)C)cc1 (stereo not drawn)
- IC50 [1]: 4.55 µM
- IC50 [2]: 4.24 µM
- IC50 [3]: 4.18 µM

SMILES: Cc1n[nH]c2c1C(c1ccc(N(C)C)cc1)C(C(N)=O)=C(N)N2 (stereo not drawn)
- IC50 [1]: 4.55 µM
- IC50 [2]: 4.24 µM
- IC50 [3]: 4.18 µM

SMILES: COc1ncc(-c2ccc3ncnc(Nc4cnn(CCO)c4)c3c2)cc1NS(=O)(=O)c1ccc(F)cc1F
- inhibition in vivo at 20 mg/kg [4]: 54.1%
- inhibition in vivo at 40 mg/kg [5]: 84.1%

SMILES: CN(C)S(=O)(=O)Nc1cccc(-c2cnn(-c3ccc(C(F)(F)F)cc3)c2)c1
- IC50 [6]: 3.44 µM
- IC50 [7]: 3.44 µM
- IC50 [8]: 3.44 µM
- IC50 [9]: 3.44 µM
- IC50 [10]: 3.44 µM
- inhibition in vivo at 30 mg/kg [11]: ~50%

SMILES: Cc1nnn(C)c1-c1cnc2c3cc4cnn(C)c4cc3n([C@H](c3ccccc3)C3CCOCC3)c2c1
- TGI [12]: 100%

SMILES: CCN1CCN(c2ccc(Nc3ncc(F)c(-c4cnc5cnn(C(C)C)c5c4)n3)cc2OC)CC1
- IC50 [13]: 0.011 µM
- IC50 [14]: 0.007 µM
- inhibition in vivo at 200 mg/kg [15]: 67%

SMILES: COc1ccc(C2CC(c3ccc(OC)c(OC)c3)=NN2c2nc(-c3ccccc3)cs2)cc1 (stereo not drawn)
- IC50 [16]: 7.21 µM
- IC50 [17]: > 50 µM

SMILES: CCOc1ccc(Oc2ccc(C3=NN(C4=NC(=O)CS4)C(c4cc(O)c(O)c(Br)c4Br)C3)cc2)cc1 (stereo not drawn)
- IC50 [18]: 2.64 µM
- IC50 [19]: 2.64 µM
- IC50 [20]: 2.64 µM
- IC50 [21]: 2.64 µM
- IC50 [22]: 2.64 µM
- IC50 [23]: 2.64 µM
- IC50 [24]: 2.64 µM
- IC50 [25]: 2.64 µM
- IC50 [26]: 2.64 µM
- IC50 [27]: 2.64 µM
- IC50 [28]: 2.64 µM
- IC50 at 48 h [29]: 27.1 µM
- IC50 at 72 h [30]: 28.3 µM
- inhibition in vivo at 25 mg/kg [31]: 58.8%
- inhibition in vivo at 50 mg/kg [32]: 67.2%
